Data from paper PMC5951806, “Rapid labelling and covalent inhibition of intracellular native proteins using ligand-directed N-acyl-N-alkyl sulfonamide” (Nature Communications, 2018).

Experiments:
[1] = molecular target: T1, staphylococcal nuclease domain-containing protein 1 (SND1) (Homo sapiens, UniProt Q7KZF4); test: TMT LC-MSMS of 11-labelled proteins; assay type: cell-based
T1 sequence (Q7KZF4 1-910): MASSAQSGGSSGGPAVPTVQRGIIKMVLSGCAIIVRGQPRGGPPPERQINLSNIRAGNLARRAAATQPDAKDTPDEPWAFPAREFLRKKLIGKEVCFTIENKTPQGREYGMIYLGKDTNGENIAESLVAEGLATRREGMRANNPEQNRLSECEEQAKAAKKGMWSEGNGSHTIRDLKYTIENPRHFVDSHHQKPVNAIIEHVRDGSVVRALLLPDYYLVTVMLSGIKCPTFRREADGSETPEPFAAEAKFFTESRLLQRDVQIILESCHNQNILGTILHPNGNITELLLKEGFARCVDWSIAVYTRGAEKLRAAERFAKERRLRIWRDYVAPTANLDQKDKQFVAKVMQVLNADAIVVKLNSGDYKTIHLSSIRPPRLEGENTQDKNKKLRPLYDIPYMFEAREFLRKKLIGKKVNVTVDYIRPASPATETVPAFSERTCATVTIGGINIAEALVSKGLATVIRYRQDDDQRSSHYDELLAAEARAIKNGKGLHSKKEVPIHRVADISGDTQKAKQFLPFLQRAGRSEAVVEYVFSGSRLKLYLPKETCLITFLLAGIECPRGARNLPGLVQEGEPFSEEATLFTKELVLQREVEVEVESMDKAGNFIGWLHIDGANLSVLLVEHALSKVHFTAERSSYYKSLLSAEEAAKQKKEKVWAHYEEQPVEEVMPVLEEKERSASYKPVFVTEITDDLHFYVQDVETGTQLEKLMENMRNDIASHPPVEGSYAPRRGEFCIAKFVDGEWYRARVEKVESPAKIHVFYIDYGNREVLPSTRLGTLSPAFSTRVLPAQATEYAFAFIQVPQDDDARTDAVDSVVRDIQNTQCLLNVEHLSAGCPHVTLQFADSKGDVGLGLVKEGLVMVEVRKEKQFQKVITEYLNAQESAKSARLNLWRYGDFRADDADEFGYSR

[2] = molecular target: Isoform 3 of L-lactate dehydrogenase A chain (LDHA) (Homo sapiens, UniProt P00338); test: TMT LC-MSMS of 11-labelled proteins; assay type: cell-based
[3] = sheet Exp1, SKBR3 cells, 11 0.5 µM 3 h vs DMSO
[4] = sheet Exp1, SKBR3 cells, 11 0.5 µM 3 h vs with PU-H71 10 µM
[5] = sheet Merged, SKBR3 cells, 11 0.5 µM 3 h vs DMSO
[6] = sheet Merged, SKBR3 cells, 11 0.5 µM 3 h vs with PU-H71 10 µM

With `CC(=O)Oc1ccc2c(c1)Oc1cc(OC(C)=O)ccc1C21OC(=O)c2cc(C(=O)NCCOCCOCCNC(=O)CCCC(=O)N(CC#N)S(=O)(=O)c3ccc(C(=O)NCCCn4c(Sc5cc6c(cc5I)OCO6)nc5c(N)ncnc54)cc3)ccc21` [compound 11] the “Abundance Ratio: (11) / (11 with PU-H71)” value ([1]; Exp3, SND1) was 0.662, the “Abundance Ratio: (11) / (DMSO)” value ([1]; Exp3, SND1) was 1.871 and the “Abundances (Grouped): 11” value ([1]; Exp3, SND1) was 30.5. For the same molecule, the “Abundances (Grouped): 11 with PU-H71” value ([1]; Exp3, SND1, with PU-H71) was 46.1, the “Abundance Ratio: (11) / (DMSO)” value [1, 3] was 2.172 and the “Abundance Ratio: (11) / (11 with PU-H71)” value [1, 4] was 0.838. For the same molecule, the “Abundance Ratio: (11) / (DMSO)” value [1, 5] was 2.016, the “Abundance Ratio: (11) / (11 with PU-H71)” value [1, 6] was 0.745 and the “Abundance Ratio: (11) / (11 with PU-H71)” value ([2]; Exp3, LDHA) was 0.709. For the same molecule, the “Abundance Ratio: (11) / (DMSO)” value ([2]; Exp3, LDHA) was 4.426, the “Abundances (Grouped): 11” value ([2]; Exp3, LDHA) was 517.9 and the “Abundances (Grouped): 11 with PU-H71” value ([2]; Exp3, LDHA) was 730.3. For the same molecule, the “Abundance Ratio: (11) / (DMSO)” value [2, 3] was 4.186, the “Abundance Ratio: (11) / (11 with PU-H71)” value [2, 4] was 0.705 and the “Abundance Ratio: (11) / (11 with PU-H71)” value ([2]; sheet Exp2, LDHA) was 0.702. For the same molecule, the “Abundance Ratio: (11) / (DMSO)” value ([2]; sheet Exp2, LDHA) was 3.79, the “Abundances (Grouped): 11” value ([2]; sheet Exp2, LDHA) was 554.9 and the “Abundances (Grouped): 11 with PU-H71” value ([2]; sheet Exp2, LDHA) was 790.3. The “Abundance Ratio: (11) / (DMSO)” value [2, 5] was 4.186 and the “Abundance Ratio: (11) / (11 with PU-H71)” value [2, 6] was 0.705.
